According to PubChem BioAssay AID248 (DTP/NCI, 2004):
Several values for one entry are separate records, joined by “and”; a condition that tells them apart may be missing. Identical values can stand only once. Inconclusive results and toxic doses are left out.

Test system: L1210 leukemia ip in BDF1 mice, survival T/C
Assay: NCI In Vivo Anticancer Drug Screen. Data for tumor model L1210 Leukemia (intraperitoneal) in B6D2F1 (BDF1) mice
Conditions: endpoint: mean survival time, higher = longer survival
Summary of the method: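 Tumor cells were implanted, animals were treated, and survival was followed. The result divides the treated measurement by the vehicle-control measurement.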

[1] = dose: 100.0 mg/kg/injection, schedule: Q01DX001 (ip), vehicle: saline
[2] = dose: 100.0 mg/kg/injection, schedule: Q04DX003 (ip), vehicle: saline
[3] = dose: 200.0 mg/kg/injection, schedule: Q01DX001 (ip), vehicle: saline
[4] = dose: 200.0 mg/kg/injection, schedule: Q04DX003 (ip), vehicle: saline
[5] = dose: 400.0 mg/kg/injection, schedule: Q01DX001 (ip), vehicle: saline
[6] = dose: 400.0 mg/kg/injection, schedule: Q04DX003 (ip), vehicle: saline
[7] = dose: 25.0 mg/kg/injection, schedule: Q01DX009 (ip), vehicle: Klucel (hydroxypropylcellulose) (HPC)
[8] = dose: 50.0 mg/kg/injection, schedule: Q01DX009 (ip), vehicle: Klucel (hydroxypropylcellulose) (HPC)
[9] = dose: 100.0 mg/kg/injection, schedule: Q04DX002 (ip), vehicle: saline with Tween-80
[10] = dose: 200.0 mg/kg/injection, schedule: Q04DX002 (ip), vehicle: saline with Tween-80
[11] = dose: 400.0 mg/kg/injection, schedule: Q04DX002 (ip), vehicle: saline with Tween-80
[12] = dose: 100.0 mg/kg/injection, schedule: Q01DX009 (ip), vehicle: Klucel (hydroxypropylcellulose) (HPC)
[13] = dose: 100.0 mg/kg/injection, schedule: Q04DX003 (ip), vehicle: Klucel (hydroxypropylcellulose) (HPC)
[14] = dose: 200.0 mg/kg/injection, schedule: Q01DX009 (ip), vehicle: Klucel (hydroxypropylcellulose) (HPC)
[15] = dose: 200.0 mg/kg/injection, schedule: Q04DX003 (ip), vehicle: Klucel (hydroxypropylcellulose) (HPC)
[16] = dose: 400.0 mg/kg/injection, schedule: Q01DX009 (ip), vehicle: Klucel (hydroxypropylcellulose) (HPC)
[17] = dose: 400.0 mg/kg/injection, schedule: Q04DX003 (ip), vehicle: Klucel (hydroxypropylcellulose) (HPC)
[18] = dose: 100.0 mg/kg/injection, schedule: Q01DX001 (ip), vehicle: carboxymethylcellulose (CMC)
[19] = dose: 200.0 mg/kg/injection, schedule: Q01DX001 (ip), vehicle: carboxymethylcellulose (CMC)
[20] = dose: 400.0 mg/kg/injection, schedule: Q01DX001 (ip), vehicle: carboxymethylcellulose (CMC)

## COc1cc(C=C2c3ccccc3-c3ccccc32)ccc1O
[1]
  T/C: 91 % of control
[2]
  T/C: 99 % of control
[3]
  T/C: 91 % of control
[4]
  T/C: 91 % of control
[5]
  T/C: 91 % of control
[6]
  T/C: 91 % of control

## CCN1CSC(=S)N(CC)C1
dose: 12.5 mg/kg/injection, schedule: Q04DX003 (ip), vehicle: Klucel (hydroxypropylcellulose) (HPC)
  T/C: 96 % of control
[7]
  T/C: 103 % of control
dose: 25.0 mg/kg/injection, schedule: Q04DX003 (ip), vehicle: Klucel (hydroxypropylcellulose) (HPC)
  T/C: 112 % of control
[8]
  T/C: 109 % of control
dose: 50.0 mg/kg/injection, schedule: Q04DX003 (ip), vehicle: Klucel (hydroxypropylcellulose) (HPC)
  T/C: 103 % of control

## Clc1ccc(CNc2ncnc3[nH]ncc23)cc1
dose: 100.0 mg/kg/injection, schedule: Q01DX001 (ip), vehicle: other
  T/C: 100 % of control
dose: 100.0 mg/kg/injection, schedule: Q04DX003 (ip), vehicle: other
  T/C: 104 % of control
dose: 200.0 mg/kg/injection, schedule: Q01DX001 (ip), vehicle: other
  T/C: 106 % of control
dose: 200.0 mg/kg/injection, schedule: Q04DX003 (ip), vehicle: other
  T/C: 113 % of control
dose: 400.0 mg/kg/injection, schedule: Q01DX001 (ip), vehicle: other
  T/C: 108 % of control
dose: 400.0 mg/kg/injection, schedule: Q04DX003 (ip), vehicle: other
  T/C: 103 % of control

## O=C(O)CCc1ccc(-c2cccc([N+](=O)[O-])c2)o1
[9]
  T/C: 102 % of control
[10]
  T/C: 105 % of control
[11]
  T/C: 98 % of control

## CC12OC1C(=O)c1ccccc1C2=O (stereo not given)
dose: 5.0 mg/kg/injection, schedule: Q04DX003 (ip), vehicle: Klucel (hydroxypropylcellulose) (HPC)
  T/C: 103 % of control
dose: 10.0 mg/kg/injection, schedule: Q04DX003 (ip), vehicle: Klucel (hydroxypropylcellulose) (HPC)
  T/C: 97 % of control

## Cc1ccc(C)c(NC(=O)OCc2ccco2)c1
dose: 100.0 mg/kg/injection, schedule: Q01DX001 (ip), vehicle: saline with Tween-80
  T/C: 97 % of control
dose: 100.0 mg/kg/injection, schedule: Q01DX009 (ip), vehicle: saline with Tween-80
  T/C: 107 % of control and 89 % of control
[9]
  T/C: 93 % of control and 100 % of control
dose: 100.0 mg/kg/injection, schedule: Q04DX003 (ip), vehicle: saline with Tween-80
  T/C: 105 % of control
dose: 200.0 mg/kg/injection, schedule: Q01DX001 (ip), vehicle: saline with Tween-80
  T/C: 95 % of control
dose: 200.0 mg/kg/injection, schedule: Q01DX009 (ip), vehicle: saline with Tween-80
  T/C: 100 % of control and 89 % of control
[10]
  T/C: 96 % of control and 98 % of control
dose: 200.0 mg/kg/injection, schedule: Q04DX003 (ip), vehicle: saline with Tween-80
  T/C: 93 % of control
dose: 400.0 mg/kg/injection, schedule: Q01DX001 (ip), vehicle: saline with Tween-80
  T/C: 95 % of control
dose: 400.0 mg/kg/injection, schedule: Q01DX009 (ip), vehicle: saline with Tween-80
  T/C: 100 % of control and 89 % of control
[11]
  T/C: 93 % of control and 102 % of control
dose: 400.0 mg/kg/injection, schedule: Q04DX003 (ip), vehicle: saline with Tween-80
  T/C: 93 % of control

## N=C(N)CSS(=O)(=O)O
dose: 12.5 mg/kg/injection, schedule: Q01DX009 (ip), vehicle: Klucel (hydroxypropylcellulose) (HPC)
  T/C: 107 % of control
dose: 12.5 mg/kg/injection, schedule: Q04DX002 (ip), vehicle: Klucel (hydroxypropylcellulose) (HPC)
  T/C: 104 % of control
[7]
  T/C: 107 % of control
dose: 25.0 mg/kg/injection, schedule: Q04DX002 (ip), vehicle: Klucel (hydroxypropylcellulose) (HPC)
  T/C: 101 % of control
dose: 50.0 mg/kg/injection, schedule: Q04DX002 (ip), vehicle: Klucel (hydroxypropylcellulose) (HPC)
  T/C: 93 % of control

## COc1cc(C[N+]23CC[N+](Cc4cc(OC)c(OC)c(OC)c4)(CC2)C3)cc(OC)c1OC
[1]
  T/C: 101 % of control
[3]
  T/C: 98 % of control
[5]
  T/C: 95 % of control

## O=C(Nc1ccc(C2=NCCN2)cc1)C1CCC(C(=O)Nc2ccc(C3=NCCN3)cc2)CC1 (stereo not given)
dose: 0.46 mg/kg/injection, schedule: Q01DX Z (ip), vehicle: carboxymethylcellulose (CMC)
  T/C: 103 % of control
dose: 0.93 mg/kg/injection, schedule: Q01DX Z (ip), vehicle: carboxymethylcellulose (CMC)
  T/C: 112 % of control
dose: 3.75 mg/kg/injection, schedule: Q01DX Z (ip), vehicle: carboxymethylcellulose (CMC)
  T/C: 152 % of control
dose: 11.0 mg/kg/injection, schedule: Q01DX015 (ip), vehicle: methylcellulose (MC)
  T/C: 197 % of control
dose: 15.0 mg/kg/injection, schedule: Q01DX Z (ip), vehicle: carboxymethylcellulose (CMC)
  T/C: 227 % of control
dose: 22.0 mg/kg/injection, schedule: Q01DX015 (ip), vehicle: methylcellulose (MC)
  T/C: 262 % of control
dose: 30.0 mg/kg/injection, schedule: Q01DX Z (ip), vehicle: carboxymethylcellulose (CMC)
  T/C: 250 % of control
dose: 31.0 mg/kg/injection, schedule: Q01DX015 (ip), vehicle: methylcellulose (MC)
  T/C: 284 % of control
dose: 45.0 mg/kg/injection, schedule: Q01DX015 (ip), vehicle: methylcellulose (MC)
  T/C: 335 % of control
dose: 60.0 mg/kg/injection, schedule: Q01DX Z (ip), vehicle: carboxymethylcellulose (CMC)
  T/C: 173 % of control
dose: 62.0 mg/kg/injection, schedule: Q01DX015 (ip), vehicle: methylcellulose (MC)
  T/C: 229 % of control
dose: 125.0 mg/kg/injection, schedule: Q01DX015 (ip), vehicle: methylcellulose (MC)
  T/C: 201 % of control
dose: 125.0 mg/kg/injection, schedule: Q01DX Z (ip), vehicle: carboxymethylcellulose (CMC)
  T/C: 102 % of control
dose: 250.0 mg/kg/injection, schedule: Q01DX001 (ip), vehicle: methylcellulose (MC)
  T/C: 178 % of control
dose: 250.0 mg/kg/injection, schedule: Q01DX015 (ip), vehicle: methylcellulose (MC)
  T/C: 160 % of control
dose: 750.0 mg/kg/injection, schedule: Q01DX001 (ip), vehicle: methylcellulose (MC)
  T/C: 243 % of control
dose: 1500.0 mg/kg/injection, schedule: Q01DX001 (ip), vehicle: methylcellulose (MC)
  T/C: 202 % of control and 239 % of control and 253 % of control

## Cc1[nH]c(=O)nc(Br)c1[N+](=O)[O-]
[8]
  T/C: 101 % of control
[12]
  T/C: 107 % of control
[13]
  T/C: 97 % of control
[14]
  T/C: 98 % of control
[15]
  T/C: 95 % of control

## O=C(/C=C/C=C/C=C/C=C/C(=O)N1CCCCC1)N1CCCCC1
[1]
  T/C: 97 % of control
[3]
  T/C: 92 % of control
[5]
  T/C: 89 % of control

## O=C(Nc1cccc(F)c1)Sc1ccc(Cl)cc1
[7]
  T/C: 98 % of control
[8]
  T/C: 108 % of control
[12]
  T/C: 105 % of control and 106 % of control and 112 % of control
dose: 100.0 mg/kg/injection, schedule: Q04DX002 (ip), vehicle: Klucel (hydroxypropylcellulose) (HPC)
  T/C: 95 % of control
dose: 200.0 mg/kg/injection, schedule: Q04DX002 (ip), vehicle: Klucel (hydroxypropylcellulose) (HPC)
  T/C: 98 % of control
[16]
  T/C: 86 % of control
dose: 400.0 mg/kg/injection, schedule: Q04DX002 (ip), vehicle: Klucel (hydroxypropylcellulose) (HPC)
  T/C: 109 % of control

## OCC1OC(OCC2OC(OC3(CO)OC(CO)C(O)C3O)C(O)C(O)C2O)C(O)C(O)C1O (stereo not given)
[2]
  T/C: 101 % of control
[4]
  T/C: 106 % of control
[6]
  T/C: 104 % of control

## CS(=O)(=O)OCC1CCCO1 (stereo not given)
dose: 50.0 mg/kg/injection, schedule: Q01DX001 (ip), vehicle: saline
  T/C: 107 % of control
[1]
  T/C: 98 % of control
[12]
  T/C: 98 % of control
[13]
  T/C: 108 % of control
[3]
  T/C: 98 % of control
[14]
  T/C: 111 % of control
[15]
  T/C: 103 % of control
[5]
  T/C: 101 % of control
[16]
  T/C: 93 % of control
[17]
  T/C: 104 % of control

## CCOC(=O)C(C)C1CCCc2c(C)ccc(C)c21 (stereo not given)
[12]
  T/C: 100 % of control
[13]
  T/C: 98 % of control
[14]
  T/C: 102 % of control
[15]
  T/C: 92 % of control
[16]
  T/C: 93 % of control
[17]
  T/C: 98 % of control

## CCC(C#N)(CCN(CC=C(C)C)CC=C(C)C)c1cccc2ccccc12 (stereo not given)
[13]
  T/C: 96 % of control

## NC(CCC1SCCS1)C(=O)O (stereo not given)
[18]
  T/C: 104 % of control
[19]
  T/C: 96 % of control
[20]
  T/C: 98 % of control

## NC(=O)c1ccc(O)cc1
[18]
  T/C: 92 % of control
[19]
  T/C: 92 % of control
[20]
  T/C: 89 % of control
